Laboratory results taken from ChEMBL document CHEMBL1201862, “PubChem BioAssay data set” (2004).
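Assay format: 96-well plates, 48-hour exposure. GI50: concentration for 50% inhibition of growth.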 Active and inactive are the calls of the source. Rule as the data show it: active = GI50 up to about 1.1 µM and inactive = higher.

Experiments:
Assay in all cases: NCI tumour cell line growth inhibition, 48 h
LXFL 529 = test system: LXFL 529
SK-MEL-2 = test system: SK-MEL-2
MOLT-4 = test system: MOLT-4
M19-MEL = test system: M19-MEL
IGROV-1 = test system: IGROV-1
NCI-H23 = test system: NCI-H23
EKVX = test system: EKVX
DMS-114 = test system: DMS-114
SNB-78 = test system: SNB-78
KM12 = test system: KM12
HCT-116 = test system: HCT-116
CAKI-1 = test system: CAKI-1
U-251 = test system: U-251
OVCAR-4 = test system: OVCAR-4
NCI-H460 = test system: NCI-H460
HT-29 = test system: HT-29
HOP-62 = test system: HOP-62
SK-MEL-28 = test system: SK-MEL-28
HCT-15 = test system: HCT-15
OVCAR-8 = test system: OVCAR-8
UACC-257 = test system: UACC-257
SF-268 = test system: SF-268
K562 = test system: K562
OVCAR-5 = test system: OVCAR-5
SR = test system: SR
SK-OV-3 = test system: SK-OV-3
SN12C = test system: SN12C
ACHN = test system: ACHN
NCI-H226 = test system: NCI-H226
786-0 = test system: 786-0
HCC 2998 = test system: HCC 2998
RPMI-8226 = test system: RPMI-8226
A549 = test system: A549
M14 = test system: M14
DMS-273 = test system: DMS-273
SW-620 = test system: SW-620
UO-31 = test system: UO-31
CCRF-CEM = test system: CCRF-CEM
KM-20L2 = test system: KM-20L2
OVCAR-3 = test system: OVCAR-3
SK-MEL-5 = test system: SK-MEL-5
Malme-3M = test system: Malme-3M
NCI-H522 = test system: NCI-H522
SF-295 = test system: SF-295
DLD-1 = test system: DLD-1
COLO 205 = test system: COLO 205
SF-539 = test system: SF-539
XF498 = test system: XF498
UACC-62 = test system: UACC-62
SNB-19 = test system: SNB-19
LOX IMVI = test system: LOX IMVI
SNB-75 = test system: SNB-75
TK-10 = test system: TK-10
RXF 393 = test system: RXF 393
HL-60 = test system: HL-60
HOP-92 = test system: HOP-92
A498 = test system: A498

N#Cc1c(C[n+]2ccccc2)c2ccccc2oc1=O
GI50 (LXFL 529): > 100 µM (inactive) | GI50 (SK-MEL-2): > 100 µM (inactive) | GI50 (MOLT-4): > 100 µM (inactive) | GI50 (M19-MEL): > 100 µM (inactive) | GI50 (IGROV-1): > 100 µM (inactive) | GI50 (NCI-H23): > 100 µM (inactive) | GI50 (EKVX): > 100 µM (inactive) | GI50 (DMS-114): > 100 µM (inactive) | GI50 (SNB-78): > 100 µM (inactive) | GI50 (KM12): > 100 µM (inactive) | GI50 (HCT-116): > 100 µM (inactive) | GI50 (CAKI-1): > 100 µM (inactive) | GI50 (U-251): > 100 µM (inactive) | GI50 (OVCAR-4): 22.7 µM (inactive) | GI50 (NCI-H460): > 100 µM (inactive) | GI50 (HT-29): > 100 µM (inactive) | GI50 (HOP-62): > 100 µM (inactive) | GI50 (SK-MEL-28): > 100 µM (inactive) | GI50 (HCT-15): > 100 µM | GI50 (OVCAR-8): > 100 µM (inactive) | GI50 (UACC-257): > 100 µM (inactive) | GI50 (SF-268): > 100 µM (inactive) | GI50 (K562): > 100 µM (inactive) | GI50 (OVCAR-5): > 100 µM (inactive) | GI50 (SR): > 100 µM (inactive) | GI50 (SK-OV-3): > 100 µM (inactive) | GI50 (SN12C): > 100 µM (inactive) | GI50 (ACHN): > 100 µM (inactive) | GI50 (NCI-H226): > 100 µM (inactive) | GI50 (786-0): > 100 µM (inactive) | GI50 (HCC 2998): > 100 µM (inactive) | GI50 (RPMI-8226): > 100 µM (inactive) | GI50 (A549): > 100 µM (inactive) | GI50 (M14): > 100 µM (inactive) | GI50 (DMS-273): > 100 µM (inactive) | GI50 (SW-620): > 100 µM (inactive) | GI50 (UO-31): > 100 µM (inactive) | GI50 (CCRF-CEM): > 100 µM (inactive) | GI50 (KM-20L2): > 100 µM (inactive) | GI50 (OVCAR-3): > 100 µM (inactive) | GI50 (SK-MEL-5): > 100 µM (inactive) | GI50 (Malme-3M): > 100 µM (inactive) | GI50 (NCI-H522): > 100 µM (inactive) | GI50 (SF-295): > 100 µM (inactive) | GI50 (DLD-1): > 100 µM (inactive) | GI50 (COLO 205): > 100 µM (inactive) | GI50 (SF-539): > 100 µM (inactive) | GI50 (XF498): > 100 µM (inactive) | GI50 (UACC-62): > 100 µM (inactive) | GI50 (SNB-19): > 100 µM (inactive) | GI50 (LOX IMVI): > 100 µM (inactive) | GI50 (SNB-75): > 100 µM (inactive)

O=c1sc2ccccc2n1CC1CS1 (centres undefined)
GI50 (TK-10): > 100 µM (inactive) | GI50 (RXF 393): > 100 µM (inactive) | GI50 (SK-MEL-2): > 100 µM (inactive) | GI50 (MOLT-4): > 100 µM (inactive) | GI50 (M19-MEL): > 100 µM (inactive) | GI50 (IGROV-1): > 100 µM (inactive) | GI50 (EKVX): > 100 µM (inactive) | GI50 (DMS-114): > 100 µM (inactive) | GI50 (KM12): > 100 µM (inactive) | GI50 (HCT-116): > 100 µM (inactive) | GI50 (CAKI-1): > 100 µM (inactive) | GI50 (HL-60): > 100 µM (inactive) | GI50 (OVCAR-4): > 100 µM (inactive) | GI50 (NCI-H460): > 100 µM (inactive) | GI50 (HT-29): > 100 µM (inactive) | GI50 (HOP-62): > 100 µM (inactive) | GI50 (SK-MEL-28): > 100 µM (inactive) | GI50 (HCT-15): > 100 µM | GI50 (OVCAR-8): > 100 µM (inactive) | GI50 (SF-268): > 100 µM (inactive) | GI50 (K562): > 100 µM (inactive) | GI50 (OVCAR-5): > 100 µM (inactive) | GI50 (SR): > 100 µM (inactive) | GI50 (SK-OV-3): > 100 µM (inactive) | GI50 (SN12C): > 100 µM (inactive) | GI50 (HOP-92): > 100 µM (inactive) | GI50 (ACHN): > 100 µM (inactive) | GI50 (NCI-H226): > 100 µM (inactive) | GI50 (HCC 2998): > 100 µM (inactive) | GI50 (RPMI-8226): > 100 µM (inactive) | GI50 (A549): > 100 µM (inactive) | GI50 (M14): > 100 µM (inactive) | GI50 (DMS-273): > 100 µM (inactive) | GI50 (SW-620): > 100 µM (inactive) | GI50 (UO-31): > 100 µM (inactive) | GI50 (CCRF-CEM): > 100 µM (inactive) | GI50 (KM-20L2): > 100 µM (inactive) | GI50 (OVCAR-3): > 100 µM (inactive) | GI50 (Malme-3M): > 100 µM (inactive) | GI50 (NCI-H522): > 100 µM (inactive) | GI50 (SF-295): > 100 µM (inactive) | GI50 (COLO 205): > 100 µM (inactive) | GI50 (SF-539): > 100 µM (inactive) | GI50 (XF498): > 100 µM (inactive) | GI50 (UACC-62): > 100 µM (inactive) | GI50 (SNB-19): > 100 µM (inactive) | GI50 (LOX IMVI): > 100 µM (inactive)

COc1cc(/C=C/c2ccc(OC)c(O)c2)cc(OC)c1
GI50 (TK-10): 37.3 µM (inactive) | GI50 (RXF 393): 1.25 µM (inactive) | GI50 (LXFL 529): 6.03 µM (inactive) | GI50 (SK-MEL-2): 6.41 µM (inactive) | GI50 (MOLT-4): 3.35 µM (inactive) | GI50 (M19-MEL): 6.41 µM (inactive) | GI50 (IGROV-1): 18.7 µM (inactive) | GI50 (NCI-H23): 3.44 µM (inactive) | GI50 (EKVX): 9.66 µM (inactive) | GI50 (DMS-114): 3.33 µM (inactive) | GI50 (SNB-78): 5.64 µM (inactive) | GI50 (KM12): 12.4 µM (inactive) | GI50 (HCT-116): 3.4 µM (inactive) | GI50 (CAKI-1): 25.5 µM (inactive) | GI50 (U-251): 3.92 µM (inactive) | GI50 (HL-60): 1.75 µM (inactive) | GI50 (OVCAR-4): 14.3 µM (inactive) | GI50 (NCI-H460): 3.65 µM (inactive) | GI50 (HT-29): 16.7 µM (inactive) | GI50 (HOP-62): 4.2 µM (inactive) | GI50 (SK-MEL-28): 6.08 µM (inactive) | GI50 (HCT-15): 3.94 µM | GI50 (OVCAR-8): 5.92 µM (inactive) | GI50 (UACC-257): 5.86 µM (inactive) | GI50 (SF-268): 8.55 µM (inactive) | GI50 (K562): 2.43 µM (inactive) | GI50 (OVCAR-5): 31.8 µM (inactive) | GI50 (SK-OV-3): 36.1 µM (inactive) | GI50 (SN12C): 8.51 µM (inactive) | GI50 (HOP-92): 7.71 µM (inactive) | GI50 (A498): 29.4 µM (inactive) | GI50 (ACHN): 7.52 µM (inactive) | GI50 (NCI-H226): 3.45 µM (inactive) | GI50 (786-0): 15.7 µM (inactive) | GI50 (HCC 2998): 20.3 µM (inactive) | GI50 (RPMI-8226): 2.19 µM (inactive) | GI50 (A549): 4.82 µM (inactive) | GI50 (M14): 3.08 µM (inactive) | GI50 (DMS-273): 15.2 µM (inactive) | GI50 (SW-620): 3.82 µM (inactive) | GI50 (UO-31): 9.46 µM (inactive) | GI50 (CCRF-CEM): 3.15 µM (inactive) | GI50 (KM-20L2): 20.4 µM (inactive) | GI50 (OVCAR-3): 2.16 µM (inactive) | GI50 (SK-MEL-5): 4.18 µM (inactive) | GI50 (Malme-3M): 10 µM (inactive) | GI50 (NCI-H522): 1.69 µM (inactive) | GI50 (SF-295): 1.96 µM (inactive) | GI50 (DLD-1): 5.52 µM (inactive) | GI50 (COLO 205): 26.5 µM (inactive) | GI50 (SF-539): 2.39 µM (inactive) | GI50 (XF498): 3.37 µM (inactive) | GI50 (UACC-62): 3.15 µM (inactive) | GI50 (SNB-19): 3.87 µM (inactive) | GI50 (LOX IMVI): 12.2 µM (inactive)
